Several values for one entry are separate records, joined by “and”; a condition that tells them apart may be missing. Identical values can stand only once. Entries after “also recorded” stand apart in the source; their conditions may differ. Like-named read-outs stand apart in the source and are kept apart here.
Assays:
[1] = tested on: HT29 cells; conditions: read-out: GI50 (potency), cited from earlier work
[2] = tested on: HCT116 cells; conditions: read-out: GI50 (potency), cited from earlier work
[3] = design: method as in earlier work; conditions: dose escalation study in healthy volunteers; cited from earlier work
[4] = Pharmacokinetic study, plasma and tumour concentrations, HT29 xenograft-bearing mice; assay type: in vivo
Description: (§1) Animal studies were all carried out using female athymic CD1 nude mice (Charles River, Kent, UK), implanted with HCT116 or HT29 xenografts (1 × 10^7 cells in 50 µl media injected subcutaneously into the right flank), maintained and handled in isolators under specific pathogen-free conditions.
(§2) Mice bearing HCT116 or HT29 human tumour xenografts were treated with 1 or 5 mg/kg WX-554, or 20 or 100 mg/kg WX-037, alone or in combination, and were bled by cardiac puncture under terminal anaesthesia at 6 or 24 h post-treatment (3 mice/time point). Blood was collected into heparinized tubes, and plasma was separated and stored at −20 °C until analysed. Tumours were removed, snap frozen in liquid nitrogen and stored at −80 °C prior to PK analyses. Samples were extracted with solid phase extraction (SPE) and analysed with high-performance liquid chromatography (HPLC) coupled with tandem mass spectrometry (MS/MS) by Wilex (Munich, Germany). The quantification limit for WX-554 was 1 ng/mL and within and between day variation was <15%. WinNonlin Software Version 4.0.1 (Pharsight Corporation, Peypin, France) was used for PK/PD modelling and non-compartmental analysis. Paired t tests were used to compare the different treatment groups, and differences with a p value ≤0.05 were considered statistically significant.

[5] = tested on: phosphorylation of ERK1/2, AKT, S6 and 4EBP1 in HT29 cells; test: Western blotting of PI3K/AKT and MAPK signal transduction, HT29; assay type: cell-based, human; conditions: HT29, 24 h, 1x or 10x GI50, Western blot
Description: (§3) Western blots were prepared, probed with phospho-4EBP1 (Thr37/46) (#2855), phospho-p44/42 MAPK (Thr202/Tyr204) (#4370), phospho-AKT (Ser473) (#4060) or phospho-S6 ribosomal protein (Ser235/236) (#4858) monoclonal antibodies obtained from Cell Signalling Technology (New England BioLabs (UK) Ltd, Hertfordshire, UK) and developed as described previously. Blots were then stripped (100 mM 2-mercaptoethanol, 2% (w/v) SDS and 62.5 mM Tris pH6.8 at 55 °C for 30 min) and re-probed with the respective total monoclonal antibody (4EBP1 (53H11) (#9644), p44/42 MAPK (ERK1/2) (#4695), AKT (pan) (C67E7) (#4691) or S6 ribosomal protein (5g10) (#2217)) obtained from Cell Signalling Technology (New England BioLabs (UK) Ltd, Hertfordshire, UK) and developed as described above.

[6] = Pharmacokinetic study, plasma and tumour concentrations, HCT116 xenograft-bearing mice; assay type: in vivo
Description: as §1, §2

[7] = tested on: HT29 cells; test: Sulforhodamine B (SRB) growth inhibition assay with median effect analysis, HT29; assay type: cell-based, human
Description: (§4) Growth was then measured using the Sulforhodamine B (SRB) method and analysed as described previously. The GI50 concentration was calculated based on a standard point to point curve with 1000 segments using GraphPad Prism software (California, USA). The data were analysed by median effect analysis using CalcuSyn software (Biosoft, Cambridgeshire, UK), which calculates the combination index of multiple drugs by an algebraic estimation algorithm.

[8] = tested on: HCT116 cells; test: Sulforhodamine B (SRB) growth inhibition assay with median effect analysis, HCT116; assay type: cell-based, human; conditions: HCT116, single agent
Description: as §4

[9] = tested on: HT29 cells; test: Clonogenic cytotoxicity assay, HT29
Description: (§6) HCT116 and HT29 human colorectal cancer cells were obtained from the ATCC (American Type Culture Collection).
(§7) After growth for 10–14 days, colonies were fixed in methanol–acetic acid 3:1 (v/v) and stained with crystal violet (0.4% w/v). Colonies consisting of more than 50 cells were counted on an automated colony counter (Oxford Optronix, Oxford, UK). Two-tailed paired t tests were used to compare the different groups. Differences with a p < 0.05 were considered statistically significant.

[10] = tested on: phosphorylation of ERK1/2, AKT, S6 and 4EBP1 in HCT116 cells; test: Western blotting of PI3K/AKT and MAPK signal transduction, HCT116; assay type: cell-based, human; conditions: HCT116, 24 h, 1x or 10x GI50, Western blot
Description: as §3

[11] = Tolerability (body weight) in the HCT116 xenograft efficacy study; assay type: in vivo; conditions: HCT116 xenograft mice, 2 mg/kg WX-554 and/or 50 mg/kg WX-037 p.o. once daily for 14 days
Description: (§5) Mice bearing HCT116 human tumour xenografts were randomized into treatment groups and then treated by oral gavage with either the vehicle (10 ml/kg), 2 mg/kg WX-554, 50 mg/kg WX-037 or the combination of 2 mg/kg WX-554 and 50 mg/kg WX-037 once daily for 14 days. Tumour volume was monitored by calliper measurement using the equation a ^2 × b/2, where a is the smallest measurement and b the largest. Data are presented as median relative tumour volumes (RTV), where the tumour volume in each mouse on the initial day of treatment (day 0) is assigned an RTV value of 1. The time to RTV4 for each individual tumour was calculated based on a standard point to point curve with 1000 segments using GraphPad Prism software (CA, USA). Mann–Whitney U tests were used to compare the different groups, i.e., the control versus each treatment group, the single agents versus each other and each single agent versus their combination. Differences with a p value ≤0.05 were considered statistically significant.
Based on the results of the PK study, the efficacy of 50 mg/kg of the PI3K inhibitor WX-037 and 2 mg/kg of the MEK inhibitor WX-554 given orally, as single agents and in combination, was assessed in HCT116 human tumour xenograft-bearing mice (Fig. 5). […] In this study, mice were treated daily for 14 days and tumour volumes were measured three times a week.

[12] = tested on: HCT116 human tumour xenografts; test: Anti-tumour activity in HCT116 xenograft-bearing mice; assay type: in vivo; conditions: 2 mg/kg WX-554 and/or 50 mg/kg WX-037 p.o. once daily for 14 days
Description: as §1, §5

[13] = tested on: MEK1; conditions: stated in Introduction, method and reference not given; read-out: half maximal inhibitory concentration (IC50), MEK1; cited from earlier work
[14] = tested on: HCT116 cells; test: Clonogenic cytotoxicity assay, HCT116
Description: as §6, §7

[15] = design: method as in PMID 23587417, PMID 24434059; conditions: recent Phase I study; cited from earlier work
[16] = tested on: MEK2; conditions: stated in Introduction, method and reference not given; read-out: half maximal inhibitory concentration (IC50), MEK2; cited from earlier work
[17] = 1 mg/kg WX-554 + 20 mg/kg WX-037, single p.o. dose
[18] = 1 mg/kg WX-554 + 100 mg/kg WX-037, single p.o. dose
[19] = 1 mg/kg WX-554 alone, single p.o. dose
[20] = 5 mg/kg WX-554 + 20 mg/kg WX-037, single p.o. dose
[21] = 5 mg/kg WX-554 + 100 mg/kg WX-037, single p.o. dose
[22] = 5 mg/kg WX-554 alone, single p.o. dose

Structure (SMILES): O=C(NOC[C@H](O)CO)c1ccc(F)c(F)c1Nc1ccc(I)cc1F [PD 0325901]
- GI50 ([1]; HT29, using the same assay): 6.5 nM
- GI50 ([2]; HCT116, using the same assay): 21 nM

Structure (SMILES): CS(=O)(=O)N1CCN(Cc2cc3nc(-c4cccc5[nH]ncc45)nc(N4CCOCC4)c3s2)CC1 [pictilisib, 2-(1H-Indazol-4-yl)-6-(4-methanesulfonyl-piperazin-1-ylmethyl)-4-morpholin-4-yl-thieno[3,2-d]pyrimidine]
- GI50 ([1]; HT29, using the same assay): 157 nM
- GI50 ([2]; HCT116, using the same assay): 1080 nM

Structure (SMILES): NCC1CN(C(=O)c2c(Nc3ccc(I)cc3F)sc3ncccc23)C1 [WX-554]
- safety and tolerability [3]: safe and tolerable
- WX-554 Concentration ± SD, Plasma, 6 hours [4, 17]: 101 ± 39 ng/mL
- WX-554 Concentration ± SD, Plasma, 24 hours [4, 17]: 5 ± 3 ng/mL
- WX-554 Concentration ± SD, Tumour, 6 hours [4, 17]: 1180 ± 597 ng/mL
- WX-554 Concentration ± SD, Tumour, 24 hours [4, 17]: 447 ± 80 ng/mL
- WX-554 Concentration ± SD, Plasma, 6 hours [4, 18]: 19 ± 14 ng/mL
- WX-554 Concentration ± SD, Plasma, 24 hours [4, 18]: 13 ± 7 ng/mL
- WX-554 Concentration ± SD, Tumour, 6 hours [4, 18]: 159 ± 102 ng/mL
- WX-554 Concentration ± SD, Tumour, 24 hours [4, 18]: 407 ± 66 ng/mL
- WX-554 Concentration ± SD, Plasma, 6 hours [4, 19]: 21 ± 1 ng/mL
- WX-554 Concentration ± SD, Plasma, 24 hours [4, 19]: 3 ± 1 ng/mL
- WX-554 Concentration ± SD, Tumour, 6 hours [4, 19]: 510 ± 40 ng/mL
- WX-554 Concentration ± SD, Tumour, 24 hours [4, 19]: 419 ± 134 ng/mL
- WX-554 Concentration ± SD, Plasma, 6 hours [4, 20]: 81 ± 26 ng/mL
- WX-554 Concentration ± SD, Plasma, 24 hours [4, 20]: 52 ± 58 ng/mL
- WX-554 Concentration ± SD, Tumour, 6 hours [4, 20]: 1143 ± 416 ng/mL
- WX-554 Concentration ± SD, Tumour, 24 hours [4, 20]: 2493 ± 979 ng/mL
- WX-554 Concentration ± SD, Plasma, 6 hours [4, 21]: 47 ± 33 ng/mL
- WX-554 Concentration ± SD, Plasma, 24 hours [4, 21]: 49 ± 10 ng/mL
- WX-554 Concentration ± SD, Tumour, 6 hours [4, 21]: 446 ± 239 ng/mL
- WX-554 Concentration ± SD, Tumour, 24 hours [4, 21]: 2423 ± 584 ng/mL
- WX-554 Concentration ± SD, Plasma, 6 hours [4, 22]: 118 ± 25 ng/mL
- WX-554 Concentration ± SD, Plasma, 24 hours [4, 22]: 13 ± 3 ng/mL
- WX-554 Concentration ± SD, Tumour, 6 hours [4, 22]: 2748 ± 378 ng/mL
- WX-554 Concentration ± SD, Tumour, 24 hours [4, 22]: 1916 ± 207 ng/mL
- reduction of ERK1/2 phosphorylation [5]: at 10 times the GI50 concentration in the HT29 cell line
- WX-554 Concentration ± SD, Plasma, 6 hours [6, 17]: 17 ± 9 ng/mL
- WX-554 Concentration ± SD, Plasma, 24 hours [6, 17]: 6 ± 6 ng/mL
- WX-554 Concentration ± SD, Tumour, 6 hours [6, 17]: 184 ± 62 ng/mL
- WX-554 Concentration ± SD, Tumour, 24 hours [6, 17]: 141 ± 58 ng/mL
- WX-554 Concentration ± SD, Plasma, 6 hours [6, 18]: 20 ± 10 ng/mL
- WX-554 Concentration ± SD, Plasma, 24 hours [6, 18]: 10 ± 7 ng/mL
- WX-554 Concentration ± SD, Tumour, 6 hours [6, 18]: 319 ± 139 ng/mL
- WX-554 Concentration ± SD, Tumour, 24 hours [6, 18]: 464 ± 263 ng/mL
- WX-554 Concentration ± SD, Plasma, 6 hours [6, 19]: 19 ± 5 ng/mL
- WX-554 Concentration ± SD, Plasma, 24 hours [6, 19]: 2 ± 1 ng/mL
- WX-554 Concentration ± SD, Tumour, 6 hours [6, 19]: 478 ± 97 ng/mL
- WX-554 Concentration ± SD, Tumour, 24 hours [6, 19]: 309 ± 30 ng/mL
- WX-554 Concentration ± SD, Plasma, 6 hours [6, 20]: 74 ± 27 ng/mL
- WX-554 Concentration ± SD, Plasma, 24 hours [6, 20]: 28 ± 7 ng/mL
- WX-554 Concentration ± SD, Tumour, 6 hours [6, 20]: 673 ± 453 ng/mL
- WX-554 Concentration ± SD, Tumour, 24 hours [6, 20]: 1240 ± 282 ng/mL
- WX-554 Concentration ± SD, Plasma, 6 hours [6, 21]: 98 ± 18 ng/mL
- WX-554 Concentration ± SD, Plasma, 24 hours [6, 21]: 68 ± 19 ng/mL
- WX-554 Concentration ± SD, Tumour, 6 hours [6, 21]: 804 ± 353 ng/mL
- WX-554 Concentration ± SD, Tumour, 24 hours [6, 21]: 1583 ± 369 ng/mL
- WX-554 Concentration ± SD, Plasma, 6 hours [6, 22]: 130 ± 37 ng/mL
- WX-554 Concentration ± SD, Plasma, 24 hours [6, 22]: 11 ± 2 ng/mL
- WX-554 Concentration ± SD, Tumour, 6 hours [6, 22]: 1724 ± 442 ng/mL
- WX-554 Concentration ± SD, Tumour, 24 hours [6, 22]: 360 ± 223 ng/mL
- fold difference in sensitivity, HT29 more sensitive than HCT116 ([7]; GI50 HCT116 versus GI50 HT29): 9 fold
- GI50 ([7]; HT29, single agent, 72-h exposure, SRB, read-out: GI50 (half maximal growth inhibitory concentration)): 4.3 nM and 4 nM
- in vitro GI50 value ([7]; HT29, single agent, determined in Supplementary Figure 1): 0.002 µg/mL
- GI50 ([8]; 72-h exposure, SRB, read-out: GI50 (half maximal growth inhibitory concentration)): 38 nM
- in vitro GI50 value ([8]; determined in Supplementary Figure 1): 0.018 µg/mL
- GI50 ([1]; HT29, unpublished Wilex studies): 7.2 nM
- LC50 fold higher than the corresponding GI50 ([9]; HT29): ~372 fold
- cell kill (cytotoxicity, cell death) ([9]; HT29, single agent 10 µM, 72 h, clonogenic assay): 75%
- CC50 ([9]; read-out: mean lethal concentration (LC50), HT29, 72-h exposure, clonogenic assay): 1600 nM
- reduction of ERK1/2 phosphorylation [10]: reduced ERK1/2 phosphorylation at 1 and 10 times the GI50 concentration
- tolerability / toxicity [11]: non-toxic
- tumour growth compared to vehicle-treated control tumours [12]: caused tumour growth delay; also recorded: induced tumour growth delay
- IC50 [13]: 4.7 nM
- LC50 fold higher than the corresponding GI50 ([14]; HCT116): approximately 16 fold
- cell kill (cytotoxicity, cell death) ([14]; HCT116, single agent 10 µM, 72 h, clonogenic assay): 67%
- CC50 ([14]; read-out: mean lethal concentration (LC50), HCT116, 72-h exposure, clonogenic assay): 600 nM
- bioavailability [15]: very good bioavailability
- IC50 [16]: 11 nM
- GI50 ([2]; HCT116, unpublished Wilex studies): 29 nM

Source: article PMC5114336, “Enhanced anti-tumour activity of the combination of the novel MEK inhibitor WX-554 and the novel PI3K inhibitor WX-037” (Cancer Chemotherapy and Pharmacology, 2016)
